Converted amounts (≈) assume the structure as drawn. Read-outs that look alike come from different tables or passages of the source.
Legend:
[1] = Solubility in sodium phosphate buffer; type: physicochemical; conditions: aqueous buffer, kinetic from dmso stock; sodium phosphate buffer (pH 7.4, 0.1 M) containing 1% DMSO
Experimental: To our knowledge, no systematic studies of selenoureas as sEH inhibitors have been performed previously. The potency of the compounds was determined against the human recombinant sEH and their solubility assessed in phosphate-buffered saline (Table 1).

[2] = tested on: human fibroblast cells (MRC-5); assay: MTT test with human fibroblast cells; type: cell-based; conditions: read-out: EC50 ± SEM, MRC-5
Experimental: The studied compounds were added in concentrations of 1, 3, 6, 12, 25, 50, and 100 μM.
Human fibroblast cells (MRC-5) were used in this study. The cells were cultured in the DMEM medium that contained 10% embryonic calf serum in a CO2 incubator at 37 °C. The tested compounds were dissolved in DMSO and added to the cellular culture at the required concentrations. Three wells were used for each concentration. The cells that were incubated without the compounds were used as a negative control, and doxorubicin was used as the positive one. Cells were placed on 96-well microliter plates and cultivated at 37 °C in 5% CO2/95% air for 72 h. The cell viability was assessed through an MTT (3-(4,5-dimethylthiazol-2-yl)-2,5-phenyl-2H-tetrazolium bromide) conversion assay. A total of 1% MTT was added to each well. Three hours later, isopropanol was added and mixed for 15 min. Optical density (OD) of the samples was measured on a ThermoFischer multi-well spectrophotometer at a wavelength of 450 nm. […] The experimental results are given as average values obtained from three independently conducted experiments.

human recombinant sEH = target: T1, human recombinant sEH (Homo sapiens, UniProt P34913); assay: Human sEH inhibition, kinetic fluorescent assay; type: biochemical; conditions: kinetic fluorescent assay; means of three separate experiments; read-out: Human sEH IC50
T1 sequence (P34913 1-555): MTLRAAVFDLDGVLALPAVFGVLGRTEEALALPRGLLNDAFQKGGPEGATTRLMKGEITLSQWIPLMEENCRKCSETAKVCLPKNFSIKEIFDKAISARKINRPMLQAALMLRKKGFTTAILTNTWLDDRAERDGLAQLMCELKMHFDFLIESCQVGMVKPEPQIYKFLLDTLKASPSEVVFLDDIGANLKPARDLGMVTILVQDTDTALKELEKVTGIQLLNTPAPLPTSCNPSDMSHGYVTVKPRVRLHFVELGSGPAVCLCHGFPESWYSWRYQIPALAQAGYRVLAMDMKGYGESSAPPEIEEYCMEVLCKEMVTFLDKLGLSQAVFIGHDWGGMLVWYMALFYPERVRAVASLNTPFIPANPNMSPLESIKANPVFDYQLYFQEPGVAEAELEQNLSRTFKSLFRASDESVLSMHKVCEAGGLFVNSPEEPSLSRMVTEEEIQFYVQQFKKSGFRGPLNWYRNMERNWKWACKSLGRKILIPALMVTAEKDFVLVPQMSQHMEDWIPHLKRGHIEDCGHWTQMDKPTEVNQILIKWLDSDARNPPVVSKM

[3] = tested on: LPS-stimulated C57bl/6j peritoneal macrophages; assay: Suppression of NO synthesis in LPS-stimulated peritoneal macrophages (Griess); type: cell-based, mice; conditions: for IC50: Mus musculus, Peritoneal macrophage, read-out: NO Synthesis, IC50 ± SE
Description: For screening designed compounds according to their probable ability to limit inflammation, we used a test on the inhibition of LPS-induced activation of primary murine macrophages. The most prominent anti-inflammatory activity, defined as the suppression of nitric oxide synthesis by LPS-stimulated macrophages, was evident for compounds 4a and 5b. At the same time, for 4a, the cytotoxic concentration was 4.7–18.4 times higher than the effective anti-inflammatory concentration. […] According to the data obtained, there is no direct correlation between the efficiency of the inhibition of sEH and NO synthesis, which requires further studies of the anti-inflammatory activity of the investigated compounds.
(§1) Peritoneal macrophages (PM) were isolated from the peritoneal exudate of 30 male C57bl/6j mice. To accumulate PM, 1 mL of 3% peptone solution was injected intraperitoneally. After 3 days, the mice were euthanized by cervical dislocation. Cells of peritoneal exudate were obtained by aseptic washing of the abdominal cavity with 5 mL of sterile Hanks’s solution (+4–6 °C) without calcium and magnesium ions. The total number and viability of cells were assessed in a Goryaev counting chamber (Russia) with a 0.4% trypan blue staining (Sigma-Aldrich, St. Louis, MO, USA). The cell concentration was adjusted to 1.0 × 10^6 cells/mL in DMEM (Gibco) supplemented with 2 mM L-glutamine (Gibco), 10% heat-inactivated fetal bovine serum (BioClot, Passau, Germany), 100 U/mL penicillin and […] streptomycin (Gibco) and plated 200 μL/well in 96-well transparent plates (SPL Life Sciences Co., Ltd., Pochon, Korea). After 2 h at 37 °C in a humidified atmosphere with 5% CO2, wells were washed to remove nonadherent cells. After 24 h of incubation, 20 μL of the supernatants were substituted with 20 μL of solutions of the test compounds, followed with E. coli O127:B8 LPS (100 ng/mL final concentration) after 30 min. Experiments were run in 3 independent replicates.
The accumulation of nitrite anion (a stable decomposition product of NO produced by iNOS) in the supernatants was determined using a standard Griess reagent. Briefly, 50 μL of supernatants collected 22 h after incubation of PM with the test and control compounds were mixed with 50 μL of 1% sulfonamide in 2.5% H3PO4 and 50 μL of 0.1% N-(1-naphthyl) ethylenediamine in 2.5% H3PO4. After incubation at 23 °C for 10 min. in an orbital shaker, the optical density was determined at a wavelength of 550 nm with a microplate reader Infinite M200 PRO (Tecan, Austria).

[4] = tested on: C57bl/6j peritoneal macrophages; assay: MTT cytotoxicity on peritoneal macrophages; type: cell-based, mice; conditions: Mus musculus, Peritoneal macrophage, read-out: EC50 ± SEM, C57bl/6j
Experimental: as §1
(§2) The activity of lactate dehydrogenase (LDH) in a cell culture medium served as a marker of membrane permeability and cell death. Aliquots of supernatants were taken after 24 h of inoculation with test compounds, mixed with 250 μL of […] NADH solution in 54 mM phosphate-buffered saline (pH 7.5). Then, 25 μL of a 6.48 mM pyruvate solution was added to the mixture. The optical density was followed at a wavelength of 340 nm for 20 min. The MTT test was performed 24 h after the incubation of cells with the tested compounds. Briefly, 20 μL of MTT solution was added to each well and incubated at 37 °C in a humidified atmosphere containing 5% CO2 for 4 h. The culture medium was aspirated, the cells were lysed and formazan crystals dissolved in 150 μL of DMSO. The plates were shaken at room temperature for 10 min, and the optical density was measured in a microplate reader Infinite M200 PRO (Tecan Group Ltd., Männedorf, Switzerland) at a wavelength of 565 nm.

[5] = MTT cytotoxicity on peritoneal macrophages; type: cell-based, mice; conditions: male, C57bl/6j, mouse, 24 h incubation, read-out: MTT CC50 ± SE
Experimental: as §1, §2

[6] = LDH release cytotoxicity on peritoneal macrophages; type: cell-based, mice; conditions: male, C57bl/6j, mouse, 24 h incubation, read-out: LDH CC50 ± SE
Experimental: as §1
as §2, with “Briefly, 20 μL of MTT solution was added to each well and incubated at 37 °C in a humidified atmosphere containing 5% CO2 for 4 h. The culture medium was aspirated, the cells were lysed and formazan crystals dissolved in 150 μL of DMSO.” left out

E. coli PQ37 = assay: SOS chromotest; type: cell-based; conditions: induction factor
Experimental: For the final safety check of selenoureas, the SOS chromotest was carried out. […] The results are presented as the mean value of induction factor I (c) ± SEM based on the results of three independent experiments, each of which included three replicates (Table 5).
The SOS chromotest was carried out according to the standard procedure, with recommended additions. The E. coli PQ37 strain was provided by P. Quillardet (Paris, France). The test compounds were dissolved in dimethyl sulfoxide (DMSO) (also used as a negative control) and added to the bacterial medium in the required concentrations; the concentration of the injected solutions was 1% by volume.

| Compound | solubility [1] [µM] | melting point [°C] | IC50 (human recombinant sEH) [nM] | other results |
| --- | --- | --- | --- | --- |
| CC(=O)N1CCC(NC(=O)NC23CC4CC(CC(C4)C2)C3)CC1 [compound 1153, reference compound] | 970 ± 60 (≈ 310 µg/mL) |  |  |  |
| COc1cccc2c1C(=O)c1c(O)c3c(c(O)c1C2=O)C[C@@](O)(C(=O)CO)C[C@@H]3O[C@H]1C[C@H](N)[C@H](O)[C@H](C)O1 [doxorubicin, reference compound] |  |  |  | EC50 ([2]; MRC5, MTT, 72 h): 2410 ± 150 nM |
| [Se]=C(NCc1ccccc1)Nc1ccc(C23CC4CC(CC(C4)C2)C3)cc1 [5e, 1-[4-(Adamantan-1-yl)phenyl]-3-benzylselenourea] | 200 ± 20 (≈ 84.7 µg/mL) | 147 to 148 | 204 |  |
| CC12CC3CC(C)(C1)CC(NC(=[Se])NCc1ccccc1)(C3)C2 [5f, 1-(3,5-Dimethyladamantan-1-yl)-3-benzylselenourea] |  | 112 to 113 | 48.5 |  |
| [Se]=C(NCc1ccccc1)NCC12CC3CC(CC(C3)C1)C2 [5b, 1-[(Adamantan-1-yl)methyl]-3-benzylselenourea] |  | 158 to 159 | 200 | cytotoxic concentration versus effective anti-inflammatory concentration ([3]; CC50 (MTT, LDH) over NO synthesis IC50, peritoneal macrophages): comparable; IC50 ([3]; 22 h): 27800 ± 5200 nM; EC50 [4]: 17700 ± 5660 nM; CC50 at 24 h [5]: 17700 ± 5700 nM; CC50 at 24 h [6]: 20400 ± 5300 nM; I(c) ± SE, 10 µM (E. coli PQ37; compound 10 µM): 1.12 ± 0.18; I(c) ± SE, 25 µM (E. coli PQ37; compound 25 µM): 0.95 ± 0.13; I(c) ± SE, 50 µM (E. coli PQ37; compound 50 µM): 0.99 ± 0.11; I(c) ± SE, 100 µM (E. coli PQ37; compound 100 µM): 0.97 ± 0.08; EC50 ([2]; MRC5, 72 h): 3040 ± 660 nM |
| [Se]=C(NCc1ccccc1)NC1C2CC3CC(C2)CC1C3 (centres unmarked) [5g, 1-(Adamantan-2-yl)-3-benzylselenourea] | 110 ± 10 (≈ 38.2 µg/mL) | 139 to 140 | 120 |  |
| [Se]=C(NCCC12CC3CC(CC(C3)C1)C2)NCc1ccccc1 [5d, 1-[2-(Adamantan-1-yl)ethyl]-3-benzylselenourea] | 140 ± 20 (≈ 52.6 µg/mL) | 142 to 143 | 34.3 |  |
| C[C@@H]1C[C@H]2[C@@H]3CCC4=CC(=O)C=C[C@]4(C)[C@@]3(F)[C@@H](O)C[C@]2(C)[C@@]1(O)C(=O)CO [Dexamethasone, reference compound] |  |  |  | IC50 ([3]; LPS 100 ng/mL, supernatants after 22 h): 3 ± 1 nM; EC50 ([4]; MTT, peritoneal macrophages of C57bl/6j mice): > 100000 nM; CC50 at 24 h ([5]; primary peritoneal macrophages): > 100000 nM; CC50 at 24 h ([6]; primary peritoneal macrophages): > 100000 nM |
| CC(NC(=[Se])NCc1ccccc1)C12CC3CC(CC(C3)C1)C2 (centres unmarked) [5c, 1-[1-(Adamantan-1-yl)ethyl]-3-benzylselenourea] | 110 ± 20 (≈ 41.3 µg/mL) | 154 to 155 | 274 |  |
